pIC50: −log10 of the molar value.
How the values were obtained:
[1] = test system: TGF-β stimulated normal human lung fibroblasts (NHLF); assay: Cell-based assays in TGF-β stimulated NHLF (P-Smad2, PAI-1, collagen, fibronectin); conditions: Fibroblast, P-Smad2, PAI-1, collagen and fibronectin assays
Experimental: ELISA Assay for TGF-β Stimulated Smad2 Phosphorylation
Serum-starved normal human lung fibroblasts (NHLF) in 24-well plate were treated with or without different concentrations of testing compounds for 30 min. The cells were then stimulated with TGF-β for one hour. After fixing, permeabilizing, and blocking, the cells were incubated with phospho-Smad2 specific antibodies followed by HRP-conjugated secondary antibody. The extent of Smad2 phosphorylation was then detected using HRP substrate and read with an ELISA plate reader. IC50 for each testing compound was determined using the PRISM3 program.
ELISA Assay for TGF-β Stimulated PAI-1 Secretion
Serum-starved NHLF in 24-well plates were treated with or without different concentrations of testing compounds for 30 min. The cells were then stimulated with TGF-β and incubated in a 37° C. incubator for 24 hours. The media were collected and added to 96-well plates coated with anti-PAI-1 antibodies. The secreted PAI-1 was then detected with another PAI-1 specific antibody followed by HRP-conjugated secondary antibody. The secretion of PAI-1 was detected using HRP substrate and read with an ELISA plate reader. IC50 for each testing compound was determined using the PRISM3 program.
SIRCOL Collagen Assay for TGF-β Stimulated Cells
Serum-starved NHLF in 24-well plates were treated with or without different concentrations of testing compounds for 30 min. The cells were then stimulated with TGF-β and incubated for 24 hours. The media were collected and SIRCOL dye reagent was added. After spinning and washing, the pellets were resuspended in alkali reagent and read with an ELISA plate reader. IC50 for each testing compound was determined using the PRISM3 program.
Detection of TGF-β Stimulated Fibronectin Expression
Serum-starved NHLF in 24-well plates were treated with or without different concentrations of testing compounds for 30 min. The cells were then stimulated with TGF-β and incubated for 24 hours. […] The signal was then detected using an ELISA reader. IC50 for each testing compound was determined using the PRISM3 program. […]

[2] = biological target: T1, ALK5 (Homo sapiens, UniProt P36897); assay: TGF-β (ALK5) phosphorylation: GST-ALK5 autophosphorylation screen and in vitro kinase of HA-ALK5 (IC50); type: biochemical
T1 construct: An expression construct containing full-length ALK5 C-terminally tagged with HA was transfected into COS7 cells; made in house; host or cells: COS7 cells (transfected; isolated by anti-HA immunoprecipitation)
T1 sequence (P36897 34-503): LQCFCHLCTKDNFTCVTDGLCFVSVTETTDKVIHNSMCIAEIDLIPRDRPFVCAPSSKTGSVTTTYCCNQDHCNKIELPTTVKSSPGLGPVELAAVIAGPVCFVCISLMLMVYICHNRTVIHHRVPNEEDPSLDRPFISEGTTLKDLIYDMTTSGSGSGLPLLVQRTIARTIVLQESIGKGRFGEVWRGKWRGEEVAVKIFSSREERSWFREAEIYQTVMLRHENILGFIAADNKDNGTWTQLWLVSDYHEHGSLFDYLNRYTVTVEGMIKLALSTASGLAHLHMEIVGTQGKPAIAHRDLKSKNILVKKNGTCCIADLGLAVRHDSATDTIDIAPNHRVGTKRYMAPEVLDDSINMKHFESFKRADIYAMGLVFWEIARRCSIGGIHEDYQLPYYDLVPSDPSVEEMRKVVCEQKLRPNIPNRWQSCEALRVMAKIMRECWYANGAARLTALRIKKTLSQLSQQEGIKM
Source text: The autophosphorylation of GST-ALK5 was developed for primary screening of the compounds that inhibit TGF-β signaling by interacting with ALK5. HA-ALK5 assay is a secondary screening assay to confirm the inhibitory compounds that were selected from the primary screening, and also for the determination of IC50 for each compound.
Autophosphorylation Assay of GST-ALK5
The cytoplasmic domain of ALK5 was fused to glutathione S-transferase (GST) and the GST-ALK5 fusion protein was expressed in a baculovirus expression system. GST-ALK5 was isolated with glutathione Sepharose 4B beads (Pharmacia Biotech, Sweden) and stored at −80° C. until use.
For detection of GST-ALK5 autophosphorylation and screening of inhibitory compounds, an aliquot of GST-ALK5 in 1× kinase buffer including [^33P]-γ-ATP was added to 96-well plates in the presence or absence of compounds. The mixture was then incubated at room temperature for 30 min and transferred to each well of a Filterplate with vacuum. The Filterplate was then washed 3 times and radioactivity in each well was counted in a Packard TopCount.
In Vitro Kinase of HA-ALK5
An expression construct containing full-length ALK5 C-terminally tagged with HA was transfected into COS7 cells, and HA-ALK5 was isolated by immunoprecipitation with anti-HA antibodies. Aliquots of immunoprecipitated HA-ALK5 in 1× kinase buffer plus [^33P]-γ-ATP was added to 96-well plates in the presence or absence of different concentrations of testing compounds, and incubated at room temperature for 60 min. The reaction mixture was then transferred to a Filterplate. The plate was washed three times and radioactivity in each well counted. IC50 for each compound was determined using the Prism3 program.

| pIC50 [2] | SMILES | pIC50 [1] |
| --- | --- | --- |
| > 5.00 | Fc1c(-c2cccc(Cl)c2)nc2ccccc2c1Nc1ccncc1 [Compound 7, [2-(3-Chloro-phenyl)-3-fluoro-quinolin-4-yl]-pyridin-4-yl-amine] | > 5.00 |
| > 5.00 | Fc1c(-c2ccc(Cl)s2)nc2ccccc2c1Nc1ccncc1 [Compound 51, [2-(5-Chloro-thiophen-2-yl)-3-fluoro-quinolin-4-yl]-pyridin-4-yl-amine] | > 5.00 |
| > 5.00 | Cc1ccc(-c2nc3ccccc3c(Nc3ccncc3)c2F)o1 [Compound 55, [3-Fluoro-2-(5-methyl-furan-2-yl)-quinolin-4-yl]-pyridin-4-yl-amine] | > 5.00 |
